Converted amounts (≈) assume the structure as drawn. The source made the active and inactive calls. No cut-off for these calls is given here.
Tested on: Rattus norvegicus
Experiment: Potentiation of AMPA-induced single unit activity in iv dosed hippocampus of anesthetized rat by electrophysiology assay
Assay type: functional
Conditions: read-out: MED

Row | SMILES | minimal effective dose
1 | CCNCc1cn(CC(=O)Nc2sc3c(c2C(N)=O)CCCC3)nc1C(F)(F)F | 0.3 mg/kg

Tested on: not listed separately
Experiment: Volume of distribution at steady state in Wistar rat at 2 mg/kg, iv
Assay type: ADME, organism-based
Set-up: dose 2 mg/kg, route intravenous
Conditions: in vivo, read-out: Vdss

Row | Vd | SMILES
2 | 2.4 L/kg | CNCc1cn(CC(=O)Nc2sc3c(c2C(N)=O)CCCC3)nc1C(F)(F)F
3 | 0.6 L/kg | CCNCc1cn(CC(=O)Nc2sc3c(c2C(N)=O)CCCC3)nc1C(F)(F)F

Further lines, the compound ahead of its results:

Row | SMILES | Vd
4 | CNCc1cn(CC(=O)Nc2sc3c(c2C(N)=O)CCCC3)nc1C(C)(C)C | 1.1 L/kg
5 | O=C(Cn1nc(C(F)(F)F)c2c1CCCC2)Nc1sc2c(c1C(=O)N[C@@H]1CCNC1)CCCC2 | 0.5 L/kg

Tested on: not listed separately
Experiment: Inhibition of kainate receptor
Conditions: not given

Row | inhibition | SMILES
6 | inactive | CCNCc1cn(CC(=O)Nc2sc3c(c2C(N)=O)CCCC3)nc1C(F)(F)F

Tested on: not listed separately
Experiment: Intrinsic clearance in human microsomes
Assay type: ADME, Microsome
Conditions: not given

Row | microsomal CLint | SMILES
7 | 33 µL/min/mg | CNCc1cn(CC(=O)Nc2sc3c(c2C(N)=O)CCCC3)nc1C(F)(F)F
8 | 57 µL/min/mg | NC(=O)c1c(NC(=O)Cn2nc(C(F)(F)F)c3c2CCNC3)sc2c1CCCC2
9 | > 270 µL/min/mg | O=C(Cn1nc(C(F)(F)F)c2c1CCCC2)Nc1sc2c(c1CO)CCCC2
10 | < 12 µL/min/mg | CCNCc1cn(CC(=O)Nc2sc3c(c2C(N)=O)CCCC3)nc1C(F)(F)F

The remaining lines, values behind:

Row | SMILES | microsomal CLint
11 | CNCc1cn(CC(=O)Nc2sc3c(c2C(N)=O)CCCC3)nc1C(C)(C)C | 15 µL/min/mg
12 | CNCc1cn(CC(=O)Nc2sc3c(c2C(=O)NC)CCCC3)nc1C(F)(F)F | 16 µL/min/mg
13 | CCN(CC)Cc1cn(CC(=O)Nc2sc3c(c2C(N)=O)CCCC3)nc1C(F)(F)F | > 270 µL/min/mg
14 | CNCc1cn(CCC(=O)Nc2sc3c(c2C(N)=O)CCCC3)nc1C(F)(F)F | 89 µL/min/mg

Tested on: not listed separately
Experiment: Solubility of the compound
Assay type: physicochemical
Conditions: not given

Row | solubility | SMILES
15 | 65 µg/mL (≈ 156 µM) | CNCc1cn(CC(=O)Nc2sc3c(c2C(N)=O)CCCC3)nc1C(F)(F)F
16 | 107 µg/mL (≈ 249 µM) | CCNCc1cn(CC(=O)Nc2sc3c(c2C(N)=O)CCCC3)nc1C(F)(F)F

The remaining lines, values behind:

Row | SMILES | solubility
17 | CNCc1cn(CC(=O)Nc2sc3c(c2C(N)=O)CCCC3)nc1C(C)(C)C | 79 µg/mL (≈ 196 µM)
18 | O=C(Cn1nc(C(F)(F)F)c2c1CCCC2)Nc1sc2c(c1C(=O)N[C@@H]1CCNC1)CCCC2 | 20 µg/mL (≈ 40.4 µM)

Tested on: not listed separately
Experiment: Inhibition of GABA receptor
Conditions: not given

Row | inhibition | SMILES
19 | inactive | CCNCc1cn(CC(=O)Nc2sc3c(c2C(N)=O)CCCC3)nc1C(F)(F)F

Tested on: not listed separately
Experiment: Inhibition of NMDA receptor
Conditions: not given

Row | inhibition | SMILES
20 | inactive | CCNCc1cn(CC(=O)Nc2sc3c(c2C(N)=O)CCCC3)nc1C(F)(F)F

Tested on: not listed separately
Experiment: Oral bioavailability in Wistar rat at 10 mg/kg
Assay type: ADME, organism-based
Conditions: in vivo

Row | bioavailability | SMILES
21 | 15% | CNCc1cn(CC(=O)Nc2sc3c(c2C(N)=O)CCCC3)nc1C(F)(F)F
22 | 43% | CCNCc1cn(CC(=O)Nc2sc3c(c2C(N)=O)CCCC3)nc1C(F)(F)F

The remaining lines, values behind:

Row | SMILES | bioavailability
23 | CNCc1cn(CC(=O)Nc2sc3c(c2C(N)=O)CCCC3)nc1C(C)(C)C | 16%
24 | O=C(Cn1nc(C(F)(F)F)c2c1CCCC2)Nc1sc2c(c1C(=O)N[C@@H]1CCNC1)CCCC2 | 4%

Tested on: not listed separately
Experiment: Intrinsic clearance in rat microsomes
Assay type: ADME, Microsome
Conditions: not given

Row | microsomal CLint | SMILES
25 | < 12 µL/min/mg | CNCc1cn(CC(=O)Nc2sc3c(c2C(N)=O)CCCC3)nc1C(F)(F)F
26 | 33 µL/min/mg | NC(=O)c1c(NC(=O)Cn2nc(C(F)(F)F)c3c2CCNC3)sc2c1CCCC2
27 | > 270 µL/min/mg | O=C(Cn1nc(C(F)(F)F)c2c1CCCC2)Nc1sc2c(c1CO)CCCC2
28 | < 19 µL/min/mg | CCNCc1cn(CC(=O)Nc2sc3c(c2C(N)=O)CCCC3)nc1C(F)(F)F

More lines, now with the values behind:

Row | SMILES | microsomal CLint
29 | CNCc1cn(CC(=O)Nc2sc3c(c2C(N)=O)CCCC3)nc1C(C)(C)C | 15 µL/min/mg
30 | CNCc1cn(CC(=O)Nc2sc3c(c2C(=O)NC)CCCC3)nc1C(F)(F)F | 33 µL/min/mg
31 | CCN(CC)Cc1cn(CC(=O)Nc2sc3c(c2C(N)=O)CCCC3)nc1C(F)(F)F | > 270 µL/min/mg
32 | CNCc1cn(CCC(=O)Nc2sc3c(c2C(N)=O)CCCC3)nc1C(F)(F)F | 49 µL/min/mg

Tested on: not listed separately
Experiment: Plasma clearance in Wistar rat at 2 mg/kg, iv
Assay type: ADME, organism-based
Set-up: dose 2 mg/kg, route intravenous
Conditions: not given

Row | clearance | SMILES
33 | 23 mL/min/kg | CNCc1cn(CC(=O)Nc2sc3c(c2C(N)=O)CCCC3)nc1C(F)(F)F
34 | 15 mL/min/kg | CCNCc1cn(CC(=O)Nc2sc3c(c2C(N)=O)CCCC3)nc1C(F)(F)F

Continued, compound first:

Row | SMILES | clearance
35 | CNCc1cn(CC(=O)Nc2sc3c(c2C(N)=O)CCCC3)nc1C(C)(C)C | 9 mL/min/kg
36 | O=C(Cn1nc(C(F)(F)F)c2c1CCCC2)Nc1sc2c(c1C(=O)N[C@@H]1CCNC1)CCCC2 | 2.3 mL/min/kg
37 | CNCc1cn(CC(=O)Nc2sc3c(c2C(=O)NC)CCCC3)nc1C(F)(F)F | 43 mL/min/kg

Tested on: not listed separately
Experiment: Half life in Wistar rat at 2 mg/kg, iv
Assay type: ADME, organism-based
Set-up: dose 2 mg/kg, route intravenous
Conditions: in vivo

Row | half-life | SMILES
38 | 1.5 h | CNCc1cn(CC(=O)Nc2sc3c(c2C(N)=O)CCCC3)nc1C(F)(F)F
39 | 1.1 h | CCNCc1cn(CC(=O)Nc2sc3c(c2C(N)=O)CCCC3)nc1C(F)(F)F

The next lines start with the compound.

Row | SMILES | half-life
40 | CNCc1cn(CC(=O)Nc2sc3c(c2C(N)=O)CCCC3)nc1C(C)(C)C | 1.9 h
41 | O=C(Cn1nc(C(F)(F)F)c2c1CCCC2)Nc1sc2c(c1C(=O)N[C@@H]1CCNC1)CCCC2 | 3.8 h

Tested on: not listed separately
Experiment: Ratio of drug level in brain to plasma in Wistar rat
Assay type: ADME
Conditions: not given

Row | Kp | SMILES
42 | 1.03 | O=C(Cn1nc(C(F)(F)F)c2c1CCCC2)Nc1sc2c(c1C(=O)N[C@@H]1CCNC1)CCCC2
43 | 0.05 | CCNCc1cn(CC(=O)Nc2sc3c(c2C(N)=O)CCCC3)nc1C(F)(F)F

From ChEMBL document CHEMBL1255184, “A novel series of positive modulators of the AMPA receptor: structure-based lead optimization” (Bioorg Med Chem Lett, 2010)
